Measurements: patent US20230390183A1, “METHOD FOR IMPROVING SKIN CONDITION BY CRASSOCEPHALUM RABENS EXTRACT” (Greenyn Biotechnology Co., Ltd, priority 2022, published 2023)

Test system: skin (moisture, wrinkle, collagen density)
Assay: Comparison of different functional components for skin-improving efficacy
Format: in vivo, human
Text: In addition to the Crassocephalum rabens extract of the present invention, some other commercially available materials were collected, including oral hyaluronic acid (for continuous use of 20 days), ceramide, and collagen (for continuous use of 6 weeks), to compare their effects in maintaining skin hydrated, reducing wrinkles, and increasing collagen.

ceramide
Moisture (%) (no duration of use printed): +2.7%
Wrinkle (%) (no duration of use printed): −5.8%

collagen
Moisture (%) (continuous use of 6 weeks): +25.5%
Wrinkle (%) (continuous use of 6 weeks): No significant

hyaluronic acid [Oral hyaluronic acid]
Moisture (%) (continuous use of 20 days): +21.5%
Wrinkle (%) (continuous use of 20 days): −12.5%
